Data published in US6831199B1, “Pyrimidine compounds and derivatives thereof” (G. D. Searle & Co., priority 1995, dated 2004).
Counter-ions that a name gives are not always drawn. Like-named read-outs stand apart in the source and are kept apart here.

Assays:
platelet rich plasma = assay: Human platelet rich plasma assay (ADP induced platelet aggregation); type: cell-based; details: ADP induced platelet aggregation in human platelet rich plasma, read-out: Human PRP
Protocol: Human Platelet Rich Plasma Assays
Healthy aspirin free donors were selected from a pool of volunteers. The harvesting of platelet rich plasma and subsequent ADP induced platelet aggregation assays were performed as described in Zucker, M. B., “Platelet Aggregation Measured by the Photometric Method”, Methods in Enzymology 169(1989):117-133. Standard venipuncture techniques using a butterfly allowed the withdrawal of 45 mL of whole blood into a 60 mL syringe containing 5 mL of 3.8% trisodium citrate. Following thorough mixing in the syringe, the anti-coagulated whole blood was transferred to a 50 mL conical polyethylene tube. The blood was centrifuged at room temperature for 12 minutes at 200×g to sediment non-platelet cells. Platelet rich plasma was removed to a polyethylene tube and stored at room temperature until used. Platelet poor plasma was obtained from a second centrifugation of the remaining blood at 2000×g for 15 minutes. Platelet counts are typically 300,000 to 500,000 per microliter. Platelet rich plasma (0.45 mL) was aliquoted into siliconized cuvettes and stirred (1100 rpm) at 37° C. for 1 minute prior to adding 50 uL of pre-diluted test compound. After 1 minute of mixing, aggregation was initiated by the addition of 50 uL of 200 uM ADP. Aggregation was recorded for 3 minutes in a Payton dual channel aggregometer (Payton Scientific, Buffalo, N.Y.). The percent inhibition of maximal response (saline control) for a series of test compound dilutions was used to determine a dose response curve.

[1] = biological target: T1, Human vitronectin receptor (αvβ3) (Homo sapiens, UniProt P05106+P06756); assay: Vitronectin adhesion assay (solid phase receptor assay, competition with biotinylated vitronectin); type: binding; details: read-out: AvB3 IC50
T1 construct: Human vitronectin receptor (αvβ3) was purified from human placenta; from tissue; host or cells: human placenta
Method in brief: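 Purified human αvβ3 coated overnight at 4 °C in TBS with 1.0 mM Ca++, Mg++, Mn++, pH 7.4; compounds (top final 1.0×10^−4 M) competed with 1 nM biotinylated vitronectin for 2 h at room temperature. Bound ligand detected by HRP anti-biotin/OPD at A450; values normalized to no-competitor controls, four-parameter curve fit.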

[2] = biological target: T2, Human fibrinogen receptor (αIIbβ3) (Homo sapiens, UniProt P05106+P08514); assay: Purified IIb/IIIa receptor assay (solid phase receptor assay, competition with biotinylated vitronectin); type: binding; details: read-out: IIb/IIIa IC50
T2 construct: Human fibrinogen receptor (αIIbβ3) was purified from outdated platelets; from tissue; host or cells: outdated human platelets
Method in brief: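 Competition format: 1 nM biotinylated vitronectin plus test compound (highest 1.0×10^−4 M), 2 h at room temperature on wells coated with platelet-derived αIIbβ3. Buffer was TBS containing 1.0 mM Ca, Mg, Mn, pH 7.4. HRP anti-biotin readout at 450 nm; normalized to maximum binding, four-parameter curve fit.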

| SMILES | IC50 (platelet rich plasma; Homo sapiens, Platelet) [nM] | IC50 [1] [nM] | IC50 [2] [nM] | IC50 (platelet rich plasma) [nM] |
| --- | --- | --- | --- | --- |
| N=C(N)Nc1cccc(C(=O)NCC(=O)NC(CC(=O)O)c2cc(Cl)cc(Br)c2O)c1 (racemic) [Example 233, (±)β-[[2-[[[3-[(aminoiminomethyl)amino]phenyl]carbonyl]amino]acetyl]amino]-3-bromo-5-chloro-2-hydroxybezenepropanoic acid, trifluoroacetate salt, monohydrate] |  | 3.31 | 647 | > 200000 |
| N#C/N=C(/NCc1cccnc1)Nc1cccc(C(=O)NCC(=O)NC(CC(=O)O)c2ccccc2)c1 (stereo not drawn) [Example 146, β-[[2-[[[3-[[(cyanoimino)[3-pyridinylmethyl)amino]methyl]amino]phenyl]carbonyl]amino]acetyl]amino]benzenepropanoic acid, bis(trifluoroacetate)salt] | > 200000 | 14.3 | 879 |  |
| N=C(N)Nc1ccc(Cl)c(C(=O)NCC(=O)NC(CC(=O)O)c2ccccc2)c1 (stereo not drawn) [Example 155, β-[[2-[[[5-[(aminoiminomethyl)amino]-2-chlorophenyl]carbonyl]amino]acetyl]amino]benzenepropanoic acid, trifluoroacete salt] | > 200000 | 5.05 | 81.1 |  |
| C#C[C@H](CC(=O)O)NC(=O)CNC(=O)c1cccc(NC(=N)N2CCCC2)c1 [Example 34, βS-[[2-[[[3-[[imino(1-pyrrolidinyl)methyl]amino]phenyl]carbonyl]amino]acetyl]amino]-4-pentynoic acid, trifluoroacetate salt] | > 200000 | 94.3 | 269 |  |
| N#C/N=C(/NCc1ccccn1)Nc1cccc(C(=O)NCC(=O)NC(CC(=O)O)c2ccccc2)c1 (stereo not drawn) [Example 144, β-[[2-[[[3-[[(cyanoimino)[2-pyridinylmethyl)amino]methyl]amino]phenyl]carbonyl]amino]acetyl]amino]benzenepropanoic acid, bis(trifluoroacetate)salt] | > 200000 | 55.3 | 5830 |  |
| O=C(O)CC(NC(=O)CNC(=O)c1cc(NC2=NCCCCC2)cc(NC2=NCCCCC2)c1)c1cccnc1 (racemic) [Example 22, (±)β-[[2-[[[3,5-bis[(3,4,5,6-tetrahydro-2H-azepin-7-yl)amino]phenyl]carbonyl]amino]acetyl]amino]pyridine-3-propanoic acid, tris(trifluoroacetate)salt] | > 200000 | 1.37 | 280 |  |
| N#C/N=C(\N)Nc1cccc(C(=O)NCC(=O)NC(CC(=O)O)c2ccccc2)c1 (stereo not drawn) [Example 138, β-[[2-[[[3-[[amino(cyanoimino)methyl]amino]phenyl]carbonyl]amino]acetyl]amino]benzenepropanoic acid] | > 200000 | 36.9 | 5820 |  |
| CCOC(=O)CC(NC(=O)CNC(=O)c1cccc(NC(=N)N)c1)c1cccnc1 (racemic) [Example 1, (±)ethyl β-[[2-[[[3-[(aminoiminomethyl)amino]phenyl]carbonyl]amino]acetyl]amino]pyridine-3-propanoate, bis(trifluoroacetate)salt] | > 200000 | 76.9 | 8350 |  |

Second part, led by results:

| IC50 (platelet rich plasma; Homo sapiens, Platelet) [nM] | IC50 [1] [nM] | IC50 [2] [nM] | SMILES | IC50 (platelet rich plasma) [nM] |
| --- | --- | --- | --- | --- |
| > 200000 | 1.43 | 25.4 | N=C(N)Nc1cccc(C(=O)NCC(=O)NC(CC(=O)O)c2ccc3c(c2)OCCO3)c1 (stereo not drawn) [Example 95, β-[[(2-[[[3-[(aminoiminomethyl)amino]phenyl]carbonyl]amino]acetyl]amino]-1,4-benzodioxin-6-propanoic acid, trifluoroacetate salt] |  |
| > 200000 | 4.62 | 1340 | NC(=O)/N=C(/N)Nc1cccc(C(=O)NCC(=O)NC(CC(=O)O)c2cc(Cl)cc(Cl)c2)c1 (stereo not drawn) [Example 162, β-[[(2-[[[3-[[amino(aminocarbonyl)imino]methyl]amino]phenyl]carbonyl]amino]acetyl]amino]-3,5-dichlorobenzenepropanoic acid, trifluoroacetate salt] |  |
| > 200000 | 60.1 | 20100 | NC(=S)Nc1cccc(C(=O)NCC(=O)NC(CC(=O)O)c2ccccc2)c1 (stereo not drawn) [Example 117, β-[[2-[[[3-[(aminothioxomethyl)amino]phenyl]carbonyl]amino]acetyl]amino]benzenepropanoic acid] |  |
| 69500 | 57.1 | 6.21 | C#C[C@H](CC(=O)O)NC(=O)CNC(=O)c1c(F)c(F)cc(NC(=N)N)c1F [Example 35, βS-[[2-[[[3-[(aminoiminomethyl)amino]-2,5,6-trifluorophenyl]carbonyl]amino]acetyl]amino]-4-pentynoic acid, trifluoroacetate salt] |  |
| > 20000 | 0.88 | 13.9 | N=C(N)Nc1cccc(C(=O)NCC(=O)NC(CC(=O)O)c2ccc(-c3ccccc3)cc2)c1 (racemic) [Example 37, (±)β-[[2-[[[3-[(aminoiminomethyl)amino]phenyl]carbonyl]amino]acetyl]amino][1,1′-biphenyl]-4-propanoic acid, trifluoroacetate salt] |  |
| > 200000 | 5.48 | 125 | N=C(N)Nc1cccc(C(=O)NCC(=O)N[C@H](CSc2ccccc2)CC(=O)O)c1 [Example 68, 3S-[[2-[[[3-[(aminoiminomethyl)amino]phenyl]carbonyl]amino]acetyl]amino]-4-(phenylthio)butanoic acid, trifluoroacetate salt] |  |
| > 20000 | 16.6 | 19100 | O=C(O)CCNC(=O)CNC(=O)c1cccc(NC(=O)NCc2ccccc2)c1 [Example 103, 3-[[2-[[[3-[[[(phenylmethyl)amino]carbonyl]amino]phenyl]carbonyl]amino]acetyl]amino]propanoic acid] |  |
| > 20000 | 0.33 | 998 | C#C[C@H](CC(=O)O)NC(=O)CNC(=O)c1cccc(NC(=O)NCc2ccccc2)c1 [Example 44, 3S-[[2-[[[3-[[[(phenylmethyl)amino]carbonyl]amino]phenyl]carbonyl]amino]acetyl]amino]-4-pentynoic acid] |  |
| > 20000 | 54.4 | 14200 | N#C/N=C(\NCc1ccccc1)Nc1cccc(C(=O)NCC(=O)NC(CC(=O)O)c2ccccc2)c1 (stereo not drawn) [Example 136, β-[[2-[[[3-[[(cyanoimino)[(phenylmethyl)amino]methyl]amino]phenyl]carbonyl]amino]acetyl]amino]benzenepropanoic acid] |  |
| > 20000 | 2.56 | 209 | Cc1cc(C)cc(C(CC(=O)O)NC(=O)CNC(=O)c2cccc(NC(=N)N)c2)c1 (racemic) [Example 193, (±)β-[[2-[[[3-[(aminoiminomethyl)amino]phenyl]carbonyl]amino]acetyl]amino]-3,5-dimethylbenzenepropanoic acid, trifluoroacetate salt] |  |
| > 20000 | 0.58 | 137 | N=C(N)Nc1cc(C(=O)NCC(=O)NC(CC(=O)O)c2cc(Cl)cc(Cl)c2)cc(C(F)(F)F)c1 (racemic) [Example 177, (±)β-[[2-[[[3-[(aminoiminomethyl)amino]-5-(trifluoromethyl)phenyl]carbonyl]amino]acetyl]amino]-3,5-dichlorobenzenepropanoic acid, trifluoroacetate salt] |  |
